Test results: PMC6437269, “OXA-48-Mediated Ceftazidime-Avibactam Resistance Is Associated with Evolutionary Trade-Offs” (mSphere, 2019)
Values after ≈ are worked out from the molar mass of the structure shown. Where two headings read alike, the source gives them in different places.

Experiments:
[1] = tested on: MP105 (E. coli TOP10 expressing OXA-48:P68A); test: microbe, parasite or virus in culture; format: cell-based; conditions: Escherichia coli; Table 3; MP105, OXA-48:P68A in pCR-blunt II TOPO
[2] = tested on: MP107 (MP100 transformed with p50579417_3_OXA-48-CAZ); test: MIC determination, MP107 (MG1655 with CAZ-adapted plasmid); format: cell-based; conditions: Escherichia coli; Table 6; MP107, adapted plasmid p50579417-OXA-48-CAZ
Experimental: (§1) For MIC determination, single colonies were suspended in 0.9% saline buffer to a 0.5 McFarland standard and further diluted 1:100 in MH broth. Fifty microliters of the bacterial suspension was loaded onto in-house-designed and premade Sensititre microtiter plates (TREK Diagnostic Systems/Thermo Fisher Scientific, East Grinstead, United Kingdom). The plates were incubated for 20 h at 37°C. Antibiotic susceptibility testing was performed in duplicates.

E. coli MG1655 (MP100) = test: microbe, parasite or virus in culture; format: cell-based, Escherichia coli; conditions: Escherichia coli, MG1655
Experimental: as §1

[3] = tested on: MP108 (MP100 transformed with p50579417_3_OXA-48-CAZ-AVI); test: MIC determination, MP108 (MG1655 with CAZ-AVI-adapted plasmid); format: cell-based; conditions: Escherichia coli; Table 6; MP108, adapted plasmid p50579417-OXA-48-CAZ-AVI
Experimental: as §1

[4] = tested on: MP101 (MP100 transformed with p50579417_3_OXA-48); test: MIC determination, MP101 (MG1655 with native OXA-48 plasmid); format: cell-based, Escherichia coli; conditions: Escherichia coli; Table 6; MP101, native plasmid; read-out: MIC
Excerpt: Mueller-Hinton (MH) agar and broth were purchased from Thermo Fisher Scientific (East Grinstead, United Kingdom). Luria-Bertani (LB) broth, LB agar, ampicillin, amoxicillin, cefepime, CAZ, imipenem, meropenem, piperacillin, and tazobactam were obtained from Sigma-Aldrich (St. Louis, MO). Nitrocefin was purchased from Merck (Darmstadt, Germany). The characteristics of the clinical E. coli strain 50579417 harboring the OXA-48 plasmid (p50579417_3_OXA-48) have been described previously ([61], [62]). The plasmid p50579417_3_OXA-48 was conjugated into rifampin-resistant E. coli TOP10 and subsequently isolated using a plasmid mini-purification kit (Qiagen, Germany). E. coli MG1655 (DA4201) was electroporated with p50579417_3_OXA-48 as published previously ([63]). Transformants positive for blaOXA-48 were checked by PCR using REDTaq ready mix (Sigma-Aldrich, St. Louis, MO) and preOXA-48 primers ([61]).
as §1

[5] = tested on: MP104 (E. coli TOP10 expressing native OXA-48); test: MIC determination, TOP10 expressing native OXA-48 (MP104); format: cell-based; conditions: Escherichia coli; Table 3; MP104, native OXA-48 in pCR-blunt II TOPO
Experimental: as §1
For a functional resistance profile, the native and mutated blaOXA-48 genes were cloned in the pCR-blunt II-TOPO vector (Invitrogen, CA) and expressed in E. coli TOP10 (Invitrogen, CA). The PCR product was obtained by Phusion High Fidelity PCR mastermix with High Fidelity buffer (New England Biolabs, MA) and preOXA-48 primers ([61]). Transformants were selected on LB agar plates containing 50 or 100 mg/liter ampicillin. Insertion size was verified by Sanger sequencing using M13 forward (5′-[…]-3′) and reverse (5′-[…]-3′) primers.

E. coli TOP10 = test: microbe, parasite or virus in culture; format: cell-based; conditions: Escherichia coli
Experimental: as §1

OXA-48:P68A = OXA-48:P68A (Klebsiella pneumoniae, UniProt Q6XEC0, P68A); test: Steady-state enzyme kinetics, OXA-48:P68A; format: biochemical; conditions: substrate hydrolysis, 25°C, pH 7.0, error = 95% CI
[6] = tested on: CC1(C)S[C@@H]2[C@H](NC(=O)[C@H](N)c3ccccc3)C(=O)N2[C@H]1C(=O)O; test: purified protein, by the assay type; conditions: other: substrate hydrolysis, 25°C, 0.1 M phosphate buffer pH 7.0, 50 mM NaHCO3, error = 95% CI
[7] = tested on: O=C(Cc1cccs1)N[C@@H]1C(=O)N2C(C(=O)O)=C(/C=C/c3ccc([N+](=O)[O-])cc3[N+](=O)[O-])CS[C@H]12; test: purified protein, by the assay type; conditions: other: substrate hydrolysis, 25°C, 0.1 M phosphate buffer pH 7.0, 50 mM NaHCO3, error = 95% CI
[8] = tested on: C[C@@H](O)[C@H]1C(=O)N2C(C(=O)O)=C(SCCN=CN)C[C@H]12; test: purified protein, by the assay type; conditions: other: substrate hydrolysis, 25°C, 0.1 M phosphate buffer pH 7.0, 50 mM NaHCO3, error = 95% CI
[9] = tested on: CC(C)(O/N=C(\C(=O)N[C@@H]1C(=O)N2C(C(=O)[O-])=C(C[n+]3ccccc3)CS[C@H]12)c1csc(N)n1)C(=O)O; test: purified protein, by the assay type; conditions: other: substrate hydrolysis, 25°C, 0.1 M phosphate buffer pH 7.0, 50 mM NaHCO3, error = 95% CI
[10] = tested on: CCN1CCN(C(=O)N[C@@H](C(=O)N[C@@H]2C(=O)N3[C@@H]2SC(C)(C)[C@@H]3C(=O)O)c2ccccc2)C(=O)C1=O; test: purified protein, by the assay type; conditions: other: substrate hydrolysis, 25°C, 0.1 M phosphate buffer pH 7.0, 50 mM NaHCO3, error = 95% CI
[11] = tested on: CO/N=C(\C(=O)N[C@@H]1C(=O)N2C(C(=O)[O-])=C(C[N+]3(C)CCCC3)CS[C@H]12)c1csc(N)n1; test: purified protein, by the assay type; conditions: other: substrate hydrolysis, 25°C, 0.1 M phosphate buffer pH 7.0, 50 mM NaHCO3, error = 95% CI
[12] = tested on: C[C@@H](O)[C@H]1C(=O)N2C(C(=O)O)=C(S[C@@H]3CN[C@H](C(=O)N(C)C)C3)[C@H](C)[C@H]12; test: purified protein, by the assay type; conditions: other: substrate hydrolysis, 25°C, 0.1 M phosphate buffer pH 7.0, 50 mM NaHCO3, error = 95% CI
crystal structure = target: the molecule itself; test: crystal structure

With `CO/N=C(\C(=O)N[C@@H]1C(=O)N2C(C(=O)O)=C(COC(C)=O)CS[C@H]12)c1csc(N)n1` [FOT, cefotaxime] the MIC [1] was 0.25 µg/mL (≈ 0.549 µM), the MIC [2] was 1 µg/mL (≈ 2.2 µM) and the MIC (E. coli MG1655 (MP100); Table 6, MP100, read-out: MIC) was 0.12 µg/mL (≈ 0.263 µM). For the same molecule, the MIC [3] was 0.25 µg/mL (≈ 0.549 µM), the MIC [4] was 0.5 µg/mL (≈ 1.1 µM) and the MIC [5] was 0.25 µg/mL (≈ 0.549 µM). For the same molecule, the MIC (E. coli TOP10; Table 3, read-out: MIC) was 0.12 µg/mL (≈ 0.263 µM).

In the case of `C[C@@H](O)[C@H]1C(=O)N2C(C(=O)O)=C(SCCN=CN)C[C@H]12` [IMI, imipenem], the Km (OXA-48:P68A) is reported as 4.2 ± 0.9 µM, the kcat (OXA-48:P68A) is reported as 0.80 ± 0.04 s⁻¹ and the MIC [1] is reported as 0.25 µg/mL (≈ 0.835 µM). The MIC [2] was 0.25 µg/mL (≈ 0.835 µM), the MIC (E. coli MG1655 (MP100)) was 0.12 µg/mL (≈ 0.401 µM) and the MIC [3] was 0.25 µg/mL (≈ 0.835 µM). The MIC [4] was 1 µg/mL (≈ 3.34 µM), the MIC [5] was 1 µg/mL (≈ 3.34 µM) and the MIC (E. coli TOP10) was 0.25 µg/mL (≈ 0.835 µM).

For `C[C@@H](O)[C@H]1C(=O)N2C(C(=O)O)=C(S[C@@H]3CN[C@H](C(=O)N(C)C)C3)[C@H](C)[C@H]12` [MEM, meropenem], the Km (OXA-48:P68A) was 3 ± 1 µM, the kcat (OXA-48:P68A) was “(8 ± 0.8) × 10^−4 s^−1” and the MIC [1] was 0.03 µg/mL (≈ 0.0782 µM). It also gave an MIC [2] of 0.06 µg/mL (≈ 0.156 µM), an MIC (E. coli MG1655 (MP100); Table 6, MP100, read-out: MIC) of 0.03 µg/mL (≈ 0.0782 µM) and an MIC [3] of 0.06 µg/mL (≈ 0.156 µM). For the same molecule, the MIC [4] was 0.25 µg/mL (≈ 0.652 µM), the MIC [5] was 0.25 µg/mL (≈ 0.652 µM) and the MIC (E. coli TOP10; Table 3, read-out: MIC) was 0.03 µg/mL (≈ 0.0782 µM).

`O=C(Cc1cccs1)N[C@@H]1C(=O)N2C(C(=O)O)=C(/C=C/c3ccc([N+](=O)[O-])cc3[N+](=O)[O-])CS[C@H]12` [NIT, nitrocefin] gave a kcat (OXA-48:P68A) of 37 ± 2 s⁻¹ and a Km (OXA-48:P68A; read-out: Km) of 53 ± 8 µM.

In the case of `CCN1CCN(C(=O)N[C@@H](C(=O)N[C@@H]2C(=O)N3[C@@H]2SC(C)(C)[C@@H]3C(=O)O)c2ccccc2)C(=O)C1=O` [PIP, piperacillin], the Km (OXA-48:P68A; read-out: Km) is reported as 290 ± 67 µM.

For `CO[C@@]1(NC(=O)C(C(=O)O)c2ccsc2)C(=O)N2[C@@H](C(=O)O)C(C)(C)S[C@@H]21` (stereo partly drawn) [TRM, temocillin], the MIC [1] was 64 µg/mL (≈ 154 µM), the MIC [2] was 128 µg/mL (≈ 309 µM) and the MIC (E. coli MG1655 (MP100); Table 6, MP100, read-out: MIC) was 8 µg/mL (≈ 19.3 µM). The MIC [3] was 32 µg/mL (≈ 77.2 µM), the MIC [4] was 256 µg/mL (≈ 618 µM) and the MIC [5] was 256 µg/mL (≈ 618 µM). For the same molecule, the MIC (E. coli TOP10; Table 3, read-out: MIC) was 16 µg/mL (≈ 38.6 µM).

In the case of OXA-48 (Klebsiella pneumoniae), the Km [6] is reported as 370 ± 70 µM, the kcat [6] is reported as 608 ± 53 s⁻¹ and the kcat/Km [6] is reported as 1.64e+06 ± 455000 M⁻¹ s⁻¹. It also gave a Km [7] of 226 ± 34 µM, a kcat [7] of 141 ± 12 s⁻¹ and a kcat/Km [7] of 624000 ± 148000 M⁻¹ s⁻¹. It also gave a Km [8] of 13 ± 2 µM, a kcat [8] of 4.8 ± 0.2 s⁻¹ and a kcat/Km [8] of 365000 ± 71000 M⁻¹ s⁻¹. For the same molecule, the Km [9] was 300 ± 150 µM, the kcat [9] was 3 ± 0.8 s⁻¹ and the kcat/Km [9] was 10000 ± 8000 M⁻¹ s⁻¹. It also gave a Km [10] of 898 ± 155 µM, a kcat [10] of 3.9 ± 0.5 s⁻¹ and a kcat/Km [10] of 4000 ± 1000 M⁻¹ s⁻¹. The Km [11] was 1,678 ± 686 µM, the kcat [11] was 1.7 ± 0.6 s⁻¹ and the kcat/Km [11] was 1000 ± 800 M⁻¹ s⁻¹. It also gave a Km [12] of 4 ± 1 µM, a kcat [12] of 0.71 ± 0.02 s⁻¹ and a kcat/Km [12] of 177000 ± 50000 M⁻¹ s⁻¹.

B1: OXA-48:P68A (enzyme)
chain: KEWQENKSWNAHFTEHKSQGVVVLWNENKQQGFTNNLKRANQAFLAASTFKIPNSLIALDLGVVKDEHQVFKWDGQTRDIATWNRDHNLITAMKYSVVPVYQEFARQIGEARMSKMLHAFDYGNEDISGNVDSFWLDGGIRISATEQISFLRKLYHNKLHVSERSQRIVKQAMLTEANGDYIIRAKTGYSTRIEPKIGWWVGWVELDDNVWFFAMNMDMPTSDGLGLRQAITKEVLKQEKIIP
notes: also called OXA-48:P68A-CAZ; OXA-48:P68A-AVI; source: E. coli Rosetta 2(DE3)/pLysS, purified (>95% purity)
B1: binds (crystal structure).
